Results reported in PubChem BioAssay (NCI).
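Each compound was tested at five concentrations against cells in 96-well plates for 48 hours. At the TGI there is no net growth.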

Key:
Assay in all cases: NCI tumour cell line growth inhibition, 48 h
MDA-MB-435 = tested on: MDA-MB-435
UACC-257 melanoma = tested on: UACC-257 melanoma
SNB-75 CNS = tested on: SNB-75 CNS
RXF 393 renal = tested on: RXF 393 renal
OVCAR-4 ovarian = tested on: OVCAR-4 ovarian
UACC-62 melanoma = tested on: UACC-62 melanoma
M14 melanoma = tested on: M14 melanoma
CCRF-CEM leukemia = tested on: CCRF-CEM leukemia
DU-145 prostate = tested on: DU-145 prostate
SK-MEL-2 melanoma = tested on: SK-MEL-2 melanoma
NCI-H460 lung = tested on: NCI-H460 lung
COLO 205 colon = tested on: COLO 205 colon
TK-10 renal = tested on: TK-10 renal
EKVX NSCLC = tested on: EKVX NSCLC
NCI-H522 lung = tested on: NCI-H522 lung
SK-MEL-5 melanoma = tested on: SK-MEL-5 melanoma
IGROV1 ovarian = tested on: IGROV1 ovarian
K-562 leukemia = tested on: K-562 leukemia
SF-539 CNS = tested on: SF-539 CNS
KM12 colon = tested on: KM12 colon

## COc1cc(-c2coc3c(OC)c(OC4OC(COC5OC(C)C(O)C(O)C5O)C(O)C(O)C4O)c(OC)c(O)c3c2=O)cc(C)c1O (stereo not given)
MDA-MB-435
  TGI: 75.2 µM
UACC-257 melanoma
  TGI: 68.2 µM
SNB-75 CNS
  TGI: 69.6 µM
RXF 393 renal
  TGI: 32.5 µM
OVCAR-4 ovarian
  TGI: 69.5 µM
UACC-62 melanoma
  TGI: 34.7 µM
M14 melanoma
  TGI: 33.1 µM
CCRF-CEM leukemia
  TGI: > 100 µM
DU-145 prostate
  TGI: 52.7 µM
SK-MEL-2 melanoma
  TGI: 59.9 µM
NCI-H460 lung
  TGI: 82.6 µM
COLO 205 colon
  TGI: 34.9 µM
TK-10 renal
  TGI: > 100 µM
EKVX NSCLC
  TGI: 38 µM
NCI-H522 lung
  TGI: 34.7 µM
SK-MEL-5 melanoma
  TGI: 26.5 µM
IGROV1 ovarian
  TGI: 53.1 µM
K-562 leukemia
  TGI: 34.6 µM
SF-539 CNS
  TGI: 39 µM
KM12 colon
  TGI: 29.3 µM
